Measured values as given in ChEMBL document CHEMBL3885881, “DrugMatrix”.

Organism: Rattus norvegicus
Experiment: DrugMatrix - Regimen: Daily Repeat
Assay type: toxicity, organism-based, Sprague-Dawley
Design: regimen Daily Repeat, gender Male, age 6-8 weeks
Conditions: in vivo, po, 10 mg/kg, route oral GAVAGE, dose level Low, vehicle 100 % WATER; for ABSOLUTE BASOPHIL / ABSOLUTE EOSINOPHIL / ABSOLUTE LYMPHOCYTE / ABSOLUTE MONOCYTE / ABSOLUTE SEGMENTED NEUTROPHIL / BASOPHIL / EOSINOPHIL / ERYTHROCYTE COUNT / HEMATOCRIT / HEMOGLOBIN / LEUKOCYTE COUNT / LYMPHOCYTE / MEAN CORPUSCULAR HEMOGLOBIN / MEAN CORPUSCULAR HEMOGLOBIN CONCENTRATION / MEAN CORPUSCULAR VOLUME / MONOCYTE / NEUTROPHIL / NUCLEATED RED BLOOD CELLS / PLATELET COUNT: tissue Blood; for ALANINE AMINOTRANSFERASE / ALKALINE PHOSPHATASE / ASPARTATE AMINOTRANSFERASE / BLOOD UREA NITROGEN / CARBON DIOXIDE / CHLORIDE / CHOLESTEROL / CREATINE PHOSPHOKINASE / CREATININE / GLUCOSE / LACTATE DEHYDROGENASE / LIPASE / PHOSPHORUS / POTASSIUM / SODIUM / TOTAL BILIRUBIN / TOTAL PROTEIN / URIC ACID: tissue Plasma

Cn1c(=O)c2[nH]cnc2n(C)c1=O.O [THEOPHYLLINE]
ABSOLUTE BASOPHIL (72 h, time 3 day): 0 CELLS/uL | ABSOLUTE EOSINOPHIL (72 h, time 3 day): 319 CELLS/uL | ABSOLUTE LYMPHOCYTE (72 h, time 3 day): 14175 CELLS/uL | ABSOLUTE MONOCYTE (72 h, time 3 day): 161.67 CELLS/uL | ABSOLUTE SEGMENTED NEUTROPHIL (72 h, time 3 day): 1511 CELLS/uL | BASOPHIL (72 h, time 3 day): 0% | EOSINOPHIL (72 h, time 3 day): 2% | ERYTHROCYTE COUNT (72 h, time 3 day): 5.5 x10E6/uL | HEMATOCRIT (72 h, time 3 day): 34.43% | HEMOGLOBIN (72 h, time 3 day): 13.03 G/DL | LEUKOCYTE COUNT (72 h, time 3 day): 16.17 x10E3/uL | LYMPHOCYTE (72 h, time 3 day): 87.67% | MEAN CORPUSCULAR HEMOGLOBIN (72 h, time 3 day): 23.7 pg | MEAN CORPUSCULAR HEMOGLOBIN CONCENTRATION (72 h, time 3 day): 37.87 G/DL | MEAN CORPUSCULAR VOLUME (72 h, time 3 day): 62.57 fL | MONOCYTE (72 h, time 3 day): 1% | NEUTROPHIL (72 h, time 3 day): 9.33% | NUCLEATED RED BLOOD CELLS (72 h, time 3 day): 0 /100WBC | PLATELET COUNT (72 h, time 3 day): 1231 x10E3/uL | ALANINE AMINOTRANSFERASE (72 h, time 3 day): 51.33 u/L | ALKALINE PHOSPHATASE (72 h, time 3 day): 320.67 u/L | ASPARTATE AMINOTRANSFERASE (72 h, time 3 day): 113 u/L | BLOOD UREA NITROGEN (72 h, time 3 day): 12.33 mg/dL | CARBON DIOXIDE (72 h, time 3 day): 28.33 mmol/L | CHLORIDE (72 h, time 3 day): 101.33 MEQ/L | CHOLESTEROL (72 h, time 3 day): 94 mg/dL | CREATINE PHOSPHOKINASE (72 h, time 3 day): 788.33 u/L | CREATININE (72 h, time 3 day): 0.2 mg/dL | GLUCOSE (72 h, time 3 day): 138.33 mg/dL | LACTATE DEHYDROGENASE (72 h, time 3 day): 1127.33 u/L | LIPASE (72 h, time 3 day): 9.67 u/L | PHOSPHORUS (72 h, time 3 day): 11.8 mg/dL | POTASSIUM (72 h, time 3 day): 6.43 MEQ/L | SODIUM (72 h, time 3 day): 144.43 MEQ/L | TOTAL BILIRUBIN (72 h, time 3 day): 0.2 mg/dL | TOTAL PROTEIN (72 h, time 3 day): 5.7 G/DL | URIC ACID (72 h, time 3 day): 1.63 mg/dL | ABSOLUTE BASOPHIL (120 h, time 5 day): 0 CELLS/uL | ABSOLUTE EOSINOPHIL (120 h, time 5 day): 162 CELLS/uL | ABSOLUTE LYMPHOCYTE (120 h, time 5 day): 12014 CELLS/uL | ABSOLUTE MONOCYTE (120 h, time 5 day): 120 CELLS/uL | ABSOLUTE SEGMENTED NEUTROPHIL (120 h, time 5 day): 1804 CELLS/uL | BASOPHIL (120 h, time 5 day): 0% | EOSINOPHIL (120 h, time 5 day): 1% | ERYTHROCYTE COUNT (120 h, time 5 day): 5.5 x10E6/uL | HEMATOCRIT (120 h, time 5 day): 34.77% | HEMOGLOBIN (120 h, time 5 day): 13.6 G/DL | LEUKOCYTE COUNT (120 h, time 5 day): 14.1 x10E3/uL | LYMPHOCYTE (120 h, time 5 day): 85.67% | MEAN CORPUSCULAR HEMOGLOBIN (120 h, time 5 day): 24.7 pg | MEAN CORPUSCULAR HEMOGLOBIN CONCENTRATION (120 h, time 5 day): 39.13 G/DL | MEAN CORPUSCULAR VOLUME (120 h, time 5 day): 63.2 fL | MONOCYTE (120 h, time 5 day): 1% | NEUTROPHIL (120 h, time 5 day): 12.33% | NUCLEATED RED BLOOD CELLS (120 h, time 5 day): 0 /100WBC | PLATELET COUNT (120 h, time 5 day): 1229 x10E3/uL | ALANINE AMINOTRANSFERASE (120 h, time 5 day): 56 u/L | ALKALINE PHOSPHATASE (120 h, time 5 day): 334.33 u/L | ASPARTATE AMINOTRANSFERASE (120 h, time 5 day): 113.67 u/L | BLOOD UREA NITROGEN (120 h, time 5 day): 15 mg/dL | CARBON DIOXIDE (120 h, time 5 day): 23.33 mmol/L | CHLORIDE (120 h, time 5 day): 103.33 MEQ/L | CHOLESTEROL (120 h, time 5 day): 77.33 mg/dL | CREATINE PHOSPHOKINASE (120 h, time 5 day): 1028.67 u/L | CREATININE (120 h, time 5 day): 0.23 mg/dL | GLUCOSE (120 h, time 5 day): 151.33 mg/dL | LACTATE DEHYDROGENASE (120 h, time 5 day): 644.67 u/L | LIPASE (120 h, time 5 day): 9 u/L | PHOSPHORUS (120 h, time 5 day): 11.9 mg/dL | POTASSIUM (120 h, time 5 day): 5.95 MEQ/L | SODIUM (120 h, time 5 day): 143.77 MEQ/L | TOTAL BILIRUBIN (120 h, time 5 day): 0.2 mg/dL | TOTAL PROTEIN (120 h, time 5 day): 5.97 G/DL | URIC ACID (120 h, time 5 day): 1.33 mg/dL
